The results in this text go back to US4551532A, “Ethylene glycol derivatives having anti-protozoan, anti-fungal and anti-tumor activity” (priority 1980, dated 1985).

Molecules are shown by their SMILES. ≈ marks a conversion by molar mass, not a printed value. Read-outs that look alike come from different tables or passages of the source. Some results are limits rather than exact numbers.

Assay [1] relates to Cochliobolus miyabeanus. The experiment in a line: antifungal activity, serial dilution method. Type of assay: cell-based. The conditions noted are these: Bipolaris oryzae.
Assay [2] deals with Colletotrichum lagenarium. Put plainly: antifungal activity, serial dilution method. It counts as cell-based. The conditions noted are these: Colletotrichum orbiculare.
For assay [3], the system named is Leptosphaeria salvinii. Put plainly: antifungal activity, serial dilution method. Type of assay: cell-based. The conditions noted are these: Nakataea oryzae.
The test system of assay [4] is Pyricularia oryzae. Put plainly: microbe, parasite or virus in culture. It counts as cell-based.
The test system of assay [5] is Penicillium. Put plainly: antifungal activity, serial dilution method. Type of assay: cell-based, Penicillium niger. The note with it: Penicillium niger (blue mold); 1% glucose-bouillon agar; read-out: MIC.
Assay [6] has as its system Botrytis cinerea. Put plainly: antifungal activity, serial dilution method. Type of assay: cell-based. The note with it: Botrytis cinerea (gray mold); 1% glucose-bouillon agar.
In assay [7] the test system is Aspergillus niger. The experiment in a line: antifungal activity, serial dilution method. Type of assay: cell-based. The conditions noted are these: Aspergillus niger (black mold); 1% glucose-bouillon agar; read-out: MIC.
Assay [8] deals with Sclerotinia sclerotiorum. The experiment in a line: antifungal activity, serial dilution method. It counts as cell-based. The conditions noted are these: Sclerotinia sclerotiorum (kidney bean stem rot); 1% glucose-bouillon agar.
In assay [9] the test system is Saccharomyces cerevisiae. Put plainly: antifungal activity, serial dilution method. It counts as cell-based. The note with it: Saccharomyces cerevisiae (brewer's yeast); 1% glucose-bouillon agar; read-out: MIC.
Assay [10] has as its system Cryptococcus neoformans. The experiment in a line: antimycotic activity, paper disk inhibition circle. It counts as cell-based. The note with it: 48 h, 8 mm paper disk, 3 mg/ml, 37° C., 2 days, read-out: Growth inhibition Cryptococcus. The protocol:
Referring to the antimycotic activity presented in Table 2, Cryptoccoccus neoformans and others were used as the test microbes, a paper disk (8 mm in diameter) was immersed in an aqueous solution of each test compound having a concentration of 3 mg/ml, air dried and placed on an agar medium, then incubation was conducted at 37° C. for 2 days, and the inhibition circle was measured. When the diameter of the inhibition circle was not larger than 8 mm, 8-10 mm, 10-20 mm, or larger than 20 mm, the activity was judged as -, ±, + or ++, respectively.

Assay [11] relates to Tetrahymena pyriformis W strain. Put plainly: antiprotozoal activity, broth dilution method. Type of assay: cell-based. The note with it: 28° C., 44-48 hours, pH 7.0, read-out: Growth inhibition MIC Tetrahymena. (In general: Broth dilution looks for growth in wells or tubes with falling amounts of substance.)
Where [12] appears, read: Colletotrichum lagenarium (cucumber anthracnose), 1% glucose-bouillon agar, read-out: MIC.
Where [13] appears, read: Leptosphaeria salvinii (rice stem rot), 1% glucose-bouillon agar, read-out: MIC.

On to `CCCCCCCCCCCCCOCCOCCOP(=O)([O-])OCC[N+](C)(C)C` [Ex.], for which the MIC stood at 25 µg/mL (≈ 55.1 µM) in assay [1]; 3.12 µg/mL (≈ 6.88 µM) in assay [2] (setting [12]); 12.5 µg/mL (≈ 27.6 µM) in [3] (setting [13]); 6.25 µg/mL (≈ 13.8 µM) in assay [4]; 12.5 µg/mL (≈ 27.6 µM) in assay [5]; 25 µg/mL (≈ 55.1 µM) in assay [6]. In addition, the MIC turned out to be 25 µg/mL (≈ 55.1 µM) in assay [7], 100 µg/mL (≈ 220 µM) in [8] and 12.5 µg/mL (≈ 27.6 µM) in [9].

For the compound `CCCCCCCCCCCCOCCOCCOCCOCCOCCOP(=O)([O-])OCC[N+](C)(C)C` [Example 3, 3,6,9,12,15-Pentaoxaheptacosyl 2-trimethylammonioethyl phosphate], the zone of inhibition at 3000 µg/mL in assay [10] was less than 8 mm. Also, the MIC in [11] is greater than 4 µg/mL.

As to `CCCCCCCC/C=C\CCCCCCCCOCCOCCOP(=O)(O)OCCN` [Example 5, 3,6-Dioxatetracos-15(Z)-enyl 2-aminoethyl phosphate], the zone of inhibition at 3000 µg/mL in assay [10] was 8 to 10 mm. In addition, the MIC in assay [11] amounted to 4 µg/mL.

For `CCCCCCCC/C=C\CCCCCCCCOCCOCCOP(=O)(O)OCCNC(C)(C)C` [Example 8, 3,6-Dioxatetracos-15(Z)-enyl 2-tert-butylaminoethyl phosphate], the MIC in assay [11] is greater than 4 µg/mL.

Regarding `CCCCCCCCCCCCCCCCCCOCCOCCOP(=O)([O-])OCC[N+](C)(C)C` [Example 18, 3,6-Dioxatetracoxyl 2-trimethylammonioethyl phosphate], the MIC in [1] is greater than 100 µg/mL; in assay [2] (setting [12]), greater than 100 µg/mL; in assay [3], 12.5 µg/mL; in assay [4] it was 12.5 µg/mL; in assay [5], greater than 100 µg/mL; in [11], no less than 4 µg/mL. Further, the figures for the MIC in assay [6], in assay [7] and in assay [8] were 25 µg/mL, greater than 100 µg/mL and greater than 100 µg/mL, respectively. Also, in assay [10], the zone of inhibition at 3000 µg/mL fell in the range of 10 to 20 mm.

Turning to `CCCCCCCCCCOCCOCCOP(=O)([O-])OCC[N+](C)(C)C` [Example 21, 3,6-Dioxahexadecyl 2-trimethylammonioethyl phosphate], the zone of inhibition at 3000 µg/mL in assay [10] lay in the range of 10 to 20 mm. The MIC in [11] came to 2 µg/mL.

With `CCCCCCCCCCOCCOCCOP(=O)(O)OCCN` [Example 22, 3,6-Dioxahexadecyl 2-aminoethyl phosphate], the zone of inhibition at 3000 µg/mL in assay [10] is less than 8 mm. Besides, in [11], the MIC was 4 µg/mL.

On to `CCCCCCCCCCCCCCOCCOCCOP(=O)(O)OCCN` [Example 24, 3,6-Dioxaeicosyl 2-aminoethyl phosphate], for which the MIC in assay [1] was 100 µg/mL; in assay [2] (setting [12]), 25 µg/mL; in [3] (setting [13]) it was greater than 100 µg/mL; in [4] it was 25 µg/mL; in [5] it was 6.25 µg/mL; in assay [11] it was 1 to 2 µg/mL. Further, the results for the MIC in [6], in assay [7] and in assay [8] were 25 µg/mL, 12.5 µg/mL and 50 µg/mL, respectively. Also, in [10], the zone of inhibition at 3000 µg/mL lay within 10 to 20 mm.

As to `CCCCCCCCCCCCCOCCOCCOP(=O)([O-])OCC[n+]1ccccc1` [Example 28, 3,6-Dioxanonadecyl 2-pyridinioethyl phosphate], the MIC in assay [1] came out at 25 µg/mL; in assay [2], 6.25 µg/mL; in assay [3] (setting [13]), 12.5 µg/mL; in assay [4], 6.25 µg/mL; in assay [5], 12.5 µg/mL; in assay [11] it was 4 µg/mL. The MIC in [6] was 12.5 µg/mL; in [7] it was 25 µg/mL; in assay [8], 25 µg/mL. For the same compound, the zone of inhibition at 3000 µg/mL in assay [10] is greater than 20 mm.

With `CCCCCCCCCCCCCOCCOCCOP(=O)([O-])OCC[N+](C)(C)C` [Example 29, 3,6-Dioxanonadecyl 2-trimethylammonioethyl phosphate], the zone of inhibition at 3000 µg/mL in assay [10] is greater than 20 mm. Also, the MIC in assay [11] was no more than 1 µg/mL.

On to `CCCCCCCCCCCCOCCOCCOP(=O)([O-])OCC[n+]1ccc2ccccc2c1` [Example 32, 3,6-Dioxaoctadecyl 2-isoquinolinioethyl phosphate], for which the zone of inhibition at 3000 µg/mL in assay [10] is greater than 20 mm. For the same compound, in assay [11], the MIC was 4 µg/mL.

As to `CCCCCCCCCCCCCCOCCOCCOP(=O)([O-])OCC[n+]1ccccc1` [Example 34, 3,6-Dioxaeicosyl 2-pyridinioethyl phosphate], the zone of inhibition at 3000 µg/mL in assay [10] was in the range of 10 to 20 mm. Also, in [11], the MIC came to 4 µg/mL.
